Source: patent US5633144A, “Assay pad and method for determination of the presence of total coliforms” (priority 1994, dated 1997)
Where two headings read alike, the source gives them in different places.

Key:
[1] = Solubility and storage stability of CPRG; assay type: physicochemical; conditions: 50 mM K-phosphate buffer containing 1 mM MgCl2, pH 7.5, 4° C.
Experimental: CPRG was dissolved in 50 mM K-phosphate buffer containing 1 mM MgCl2. […] When the beta-galactosidase catalzyed hydrolysis of CPRG occurs, the resulting product on the MetPAD™ is purple and, thus, is easily detected visibly.

[2] = cited from earlier work
beta-galactosidase [3] = target: T1, beta-galactosidase (Escherichia coli, UniProt P00722); assay type: biochemical, E. coli EW1b
T1 construct: one convenient source of beta-galactosidase is bacteria which produce this enzyme in useful amounts; endogenous in cells; host or cells: E. coli EW1b (Coli Genetic Stock Culture, Yale University), IPTG-induced, freeze-dried in trehalose, rehydrated
T1 sequence (P00722 2-1024): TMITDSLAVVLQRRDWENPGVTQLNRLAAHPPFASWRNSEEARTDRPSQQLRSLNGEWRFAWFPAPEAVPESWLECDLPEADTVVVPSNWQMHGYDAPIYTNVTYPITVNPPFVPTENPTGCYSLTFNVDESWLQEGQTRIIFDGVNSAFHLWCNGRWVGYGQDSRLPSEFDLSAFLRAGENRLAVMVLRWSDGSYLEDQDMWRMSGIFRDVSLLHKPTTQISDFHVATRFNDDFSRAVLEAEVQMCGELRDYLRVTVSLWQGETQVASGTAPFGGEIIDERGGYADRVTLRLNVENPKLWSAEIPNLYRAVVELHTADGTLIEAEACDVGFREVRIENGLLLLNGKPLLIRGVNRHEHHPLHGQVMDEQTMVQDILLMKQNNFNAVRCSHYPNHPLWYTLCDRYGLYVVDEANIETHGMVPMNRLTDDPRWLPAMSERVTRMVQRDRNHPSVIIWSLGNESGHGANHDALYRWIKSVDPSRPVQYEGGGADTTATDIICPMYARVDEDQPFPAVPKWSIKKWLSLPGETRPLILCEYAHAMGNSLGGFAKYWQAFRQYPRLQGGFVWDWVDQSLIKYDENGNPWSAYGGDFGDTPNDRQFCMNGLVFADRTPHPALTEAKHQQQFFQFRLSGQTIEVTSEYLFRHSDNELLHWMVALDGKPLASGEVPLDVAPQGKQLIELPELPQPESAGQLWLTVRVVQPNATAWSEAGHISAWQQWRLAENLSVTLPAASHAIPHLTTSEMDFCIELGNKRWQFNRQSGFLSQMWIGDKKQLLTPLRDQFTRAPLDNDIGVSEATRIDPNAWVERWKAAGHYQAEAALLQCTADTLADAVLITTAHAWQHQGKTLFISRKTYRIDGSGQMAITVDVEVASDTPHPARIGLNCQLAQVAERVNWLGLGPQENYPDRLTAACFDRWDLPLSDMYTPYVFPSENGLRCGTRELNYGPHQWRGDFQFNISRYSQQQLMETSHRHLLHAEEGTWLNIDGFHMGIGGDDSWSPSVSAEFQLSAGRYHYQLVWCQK

beta-galactosidase [4] = target: T1, beta-galactosidase; assay type: biochemical, E. coli EW1b; remark: listed apart in the source
[5] = tested on: beta-galactosidase of E. coli EW1b; assay type: biochemical; conditions: for Color intensity, trehalose medium: freeze-dried in trehalose medium (22.4% w/v); for Color intensity, distilled water: freeze-dried in distilled water
beta-galactosidase [6] = target: T1, beta-galactosidase; assay type: biochemical, E. coli EW1b; parameters: key: +++++: maximum color intensity; -: complete enzyme inactivation
E. coli EW1b cells = experiment: Enhancement of beta-galactosidase production by inducer; assay type: cell-based; conditions: E. coli EW1b cells treated with inducer
Text: As described above, one convenient source of beta-galactosidase is bacteria which produce this enzyme in useful amounts. Advantageously, the enzyme produced by the bacteria is readily accessible to the heavy metal and the substrate. […] Among the bacteria investigated by the applicants are E. coli C3000, E. coli EW1b, and a mixed culture of beta-galactosidase producers isolated from wastewater. E. coli C3000 is available from the American Type Culture Collection (ATCC), 12301 Parklawn Drive, Rockville, Md. 20852 USA. The culture has been assigned the accession number ATCC 15597 by the repository. E. coli EW1b is available from the Coli Genetic Stock Culture, Yale University, New Haven, Conn. The mixed culture was obtained following inoculation of LB-lactose-SDS broth with activated sludge effluent. Although these bacteria would perform well in the assay of the subject invention, E. coli C3000 was not as sensitive to heavy metal toxicity as E. coli EW1b or the mixture of beta-galactosidase producing bacteria. Moreover, due to potential problems in maintaining a mixed culture of bacteria, E. coli EW1b is the preferred microbe. […]
3. […] The bacterial suspension is then diluted with 20 ml of fresh medium, amended with 1 ml of 0.2% (w/v) solution of isopropyl-beta-thiogalactoside (IPTG) and then allowed to grow to absorbance A550 =0.4-0.5.

[7] = Stability of beta-galactosidase in freeze-dried cells; assay type: physicochemical, E. coli EW1b
Experimental: A. Preparation of freeze-dried cells
1. Stock cultures of E. coli EW1b are stored in 40% glycerol solution at -14° C. to -20° C.
2. Fifty μL of the stock culture are inoculated into 5 ml of LB-lactose medium (Bacto-tryptone: 1%; yeast extract: 0.5%; NaCl: 1.0%; K2 HPO4 : 0.15%; Lactose: 1%).
3. Cells are grown overnight at 35° C. The bacterial suspension is then diluted with 20 ml of fresh medium, amended with 1 ml of 0.2% (w/v) solution of isopropyl-beta-thiogalactoside (IPTG) and then allowed to grow to absorbance A550 =0.4-0.5.
4. Cells are centrifuged at 8000 RPM for 10 minutes.
5. The pellet is resuspended in distilled water.
6. The suspension is centrifuged for 10 minutes at 8000 RPM.
7. The suspension is resuspended in 2% trehalose to obtain an absorbance of A550 =0.2-0.25 (if using the MUGA pads for enzyme assay, an absorbance of A550 =0.10 is sufficient).
8. This suspension is dispensed in 3 ml aliquots in serum bottles.
9. The cells are frozen overnight at -40° C.
10. The frozen cells are freeze-dried for 24 hours and stored at subzero or at refrigerator temperature until used. […] Moreover, the enzyme was stable for at least 18 hours at 35° C.

[8] = 400 ppm, maximum concentration tested at which no inhibition was observed

O=S1(=O)OC(c2ccc(O)c(Cl)c2)(c2ccc(O[C@@H]3O[C@H](CO)[C@H](O)[C@H](O)[C@H]3O)c(Cl)c2)c2ccccc21 (stereo partly drawn) [CPRG, chlorophenol red-beta-D-galactopyranoside]
stability of CPRG solution [1]: stable at 4 °C for one week | solubility [2]: more than 50 mmol/L | stability ([2]; must be protected from light): stable at -20 °C

O=S(=O)([O-])[O-].[Cd+2] [Cadmium (CdSO4), Cadmium]
MIC (Minimum Inhibitory Concentration) (beta-galactosidase [3]; MetPAD): 0.2 µg/mL | Total inactivation (toxicant concentration which causes 100% inhibition of enzyme activity) (beta-galactosidase [3]; MetPAD): 1.0 mg/L | heavy metal toxicity, response of MetPAD (in words) (beta-galactosidase [3]; MetPAD, 7 heavy metals): most toxic among the metals tested | Minimum inhibitory concentration (MIC), CPRG pads (beta-galactosidase [4]; CPRG pads): 0.30 µg/mL | Minimum inhibitory concentration (MIC), fluorescent pads (beta-galactosidase [4]; Fluorescent (MUGA) pads): 0.30 µg/mL | Color intensity, trehalose medium ([5]; 1.0 ppm): - | Color intensity, trehalose medium ([5]; 1.5 ppm): -

ClC(Cl)Cl [Chloroform]
Color intensity (beta-galactosidase [6]; 3250 ppm): +++++

O.O.O.O.O.O=S(=O)([O-])[O-].[Cu+2] [Copper (CuSO4.5H2 O), Copper]
MIC (Minimum Inhibitory Concentration) (beta-galactosidase [3]; MetPAD): 0.5 µg/mL | Total inactivation (toxicant concentration which causes 100% inhibition of enzyme activity) (beta-galactosidase [3]; MetPAD): 1.0 mg/L | Minimum inhibitory concentration (MIC), CPRG pads (beta-galactosidase [4]; CPRG pads): 0.50 µg/mL | Minimum inhibitory concentration (MIC), fluorescent pads (beta-galactosidase [4]; Fluorescent (MUGA) pads): 0.25 µg/mL | Color intensity, distilled water ([5]; 0.5 ppm): +++++ | Color intensity, distilled water ([5]; 0.8 ppm): +++++ | Color intensity, distilled water ([5]; 1.0 ppm): +++++ | Color intensity, trehalose medium ([5]; 1.0 ppm): - | Color intensity, distilled water ([5]; 1.5 ppm): +++++ | Color intensity, trehalose medium ([5]; 1.5 ppm): -

C=O [Formaldehyde]
Color intensity (beta-galactosidase [6]; 925 ppm, buffered to pH = 7.0 with K-phosphate buffer): +++++

CC(C)S[C@@H]1O[C@H](CO)[C@H](O)[C@H](O)[C@H]1O [IPTG, isopropyl-beta-thiogalactoside]
beta-galactosidase production (E. coli EW1b cells): beta-galactosidase production could be enhanced

O=[N+]([O-])[O-].O=[N+]([O-])[O-].[Pb+2] [Lead (Pb(NO3)2), Lead]
MIC (Minimum Inhibitory Concentration) (beta-galactosidase [3]; MetPAD): 5.0 µg/mL | Total inactivation (toxicant concentration which causes 100% inhibition of enzyme activity) (beta-galactosidase [3]; MetPAD): 15.0 mg/L | Minimum inhibitory concentration (MIC), CPRG pads (beta-galactosidase [4]; CPRG pads): 5.00 µg/mL | Minimum inhibitory concentration (MIC), fluorescent pads (beta-galactosidase [4]; Fluorescent (MUGA) pads): 2.50 µg/mL | Color intensity, trehalose medium ([5]; 3.0 ppm): +++++ | Color intensity, trehalose medium ([5]; 15.0 ppm): - | Color intensity, trehalose medium ([5]; 20.0 ppm): -

Cl[C@H]1[C@H](Cl)[C@@H](Cl)[C@@H](Cl)[C@H](Cl)[C@H]1Cl [Lindane]
Color intensity (beta-galactosidase [6]; 500 ppm): +++++

O.O.O.O.O.O.O=S(=O)([O-])[O-].[Ni+2] [Ni (NiSO4.6H2 O), Nickel]
MIC (Minimum Inhibitory Concentration) (beta-galactosidase [3]; MetPAD): 8.0 µg/mL | Total inactivation (toxicant concentration which causes 100% inhibition of enzyme activity) (beta-galactosidase [3]; MetPAD): 20.0 mg/L | Minimum inhibitory concentration (MIC), CPRG pads (beta-galactosidase [4]; CPRG pads): 8.00 µg/mL | Minimum inhibitory concentration (MIC), fluorescent pads (beta-galactosidase [4]; Fluorescent (MUGA) pads): 5.00 µg/mL

Oc1c(Cl)c(Cl)c(Cl)c(Cl)c1Cl [Pentachlorophenol]
Color intensity (beta-galactosidase [6]; [8]): +++++

Oc1ccccc1 [Phenol]
Color intensity (beta-galactosidase [6]; 3000 ppm): +++++

CCCCCCCCCCCCOS(=O)(=O)[O-].[Na+] [Sodium dodecyl sulfate]
Color intensity (beta-galactosidase [6]; 3000 ppm): +++++

Cn1cc(-c2ccccc2)c(=O)c(-c2cccc(C(F)(F)F)c2)c1 [Sonar (Fluoridone), Fluoridone]
Color intensity (beta-galactosidase [6]; [8]): +++++

O=S(=O)([O-])[O-].[Zn+2] [Zinc (ZnSO4), Zinc]
MIC (Minimum Inhibitory Concentration) (beta-galactosidase [3]; MetPAD): 0.5 to 1 µg/mL | Total inactivation (toxicant concentration which causes 100% inhibition of enzyme activity) (beta-galactosidase [3]; MetPAD): 3.0 mg/L | Minimum inhibitory concentration (MIC), CPRG pads (beta-galactosidase [4]; CPRG pads): 0.5 to 1.00 µg/mL | Minimum inhibitory concentration (MIC), fluorescent pads (beta-galactosidase [4]; Fluorescent (MUGA) pads): 0.50 µg/mL | Color intensity, distilled water ([5]; 0.5 ppm): +++++ | Color intensity, trehalose medium ([5]; 0.5 ppm): +++++ | Color intensity, distilled water ([5]; 1.0 ppm): +++++ | Color intensity, trehalose medium ([5]; 3.0 ppm): - | Color intensity, trehalose medium ([5]; 5.0 ppm): - | Color intensity, trehalose medium ([5]; 7.5 ppm): - | Color intensity, distilled water ([5]; 10.0 ppm): - | Color intensity, trehalose medium ([5]; 10.0 ppm): -

O=[N+]([O-])c1ccc(O)cc1 [p-nitrophenol]
Color intensity (beta-galactosidase [6]; 110 ppm): +++++

Chromium [Cr (K2 Cr2 O7)]
MIC (Minimum Inhibitory Concentration) (beta-galactosidase [3]): 25.0 µg/mL | Total inactivation (toxicant concentration which causes 100% inhibition of enzyme activity) (beta-galactosidase [3]): 50.0 mg/L | Minimum inhibitory concentration (MIC), CPRG pads (beta-galactosidase [4]): 25.00 µg/mL | Minimum inhibitory concentration (MIC), fluorescent pads (beta-galactosidase [4]): 25.00 µg/mL

Mercury [Mercury (HgSO4)]
MIC (Minimum Inhibitory Concentration) (beta-galactosidase [3]; MetPAD): 0.5 µg/mL | Total inactivation (toxicant concentration which causes 100% inhibition of enzyme activity) (beta-galactosidase [3]; MetPAD): 1.0 mg/L | Minimum inhibitory concentration (MIC), CPRG pads (beta-galactosidase [4]; CPRG pads): 0.25 µg/mL | Minimum inhibitory concentration (MIC), fluorescent pads (beta-galactosidase [4]; Fluorescent (MUGA) pads): 0.25 µg/mL | Color intensity, distilled water ([5]; 0.5 ppm): +++++ | Color intensity, distilled water ([5]; 1.0 ppm): +++++ | Color intensity, trehalose medium ([5]; 1.0 ppm): - | Color intensity, distilled water ([5]; 1.5 ppm): +++++ | Color intensity, trehalose medium ([5]; 1.5 ppm): - | Color intensity, trehalose medium ([5]; 2.0 ppm): -

beta-galactosidase: enzyme of freeze-dried E. coli EW1b cells
stability of beta-galactosidase activity of freeze-dried cells ([7]; 4° C.): stable for several weeks | stability of the enzyme ([7]; 35° C.): at least 18 hours
